The values that follow are results of earlier work, collected in patent US20130337047A1, “COMPOSITIONS FOR TREATING ORAL AND PERIODONTAL INFECTIONS” (ZarzaTech, Inc., priority 2012, published 2013).

Structures can show the parent of a compound that is named as a salt.

Series [1] has as its system gingivitis.
For series [2], the system named is crevicular neutrophils. The note with it: humans, topical 0.5% oral rinse.

`CN/C(=N/CCSCc1nc[nH]c1C)NC#N` [cimetidine]: in series [1] (dog gingivitis model), the “Antiplaque activity and tooth stain” value was “no antiplaque activity or increase in tooth stain”; the “Gingival inflammation and gingival bleeding” value is listed as “significantly reduced”; the Gingivitis result was “reduced gingivitis”. Further, in series [2], the “Antibacterial function of crevicular neutrophils” value is given as “enhanced” and the Clinical gingivitis benefit entry is “no clinical gingivitis benefit”.
`CN/C(=N/CCSCc1nc[nH]c1C)NC#N` [cimetidine HCL]: the Anti-gingivitis activity result in series [1] (dose response study, dog gingivitis model) is on record as “significant anti-gingivitis activity that increased with increasing dose”. Further, the Prevention of gingivitis entry in series [1] (prevention study, same dog model) is “not conclusive”.
